Measurements taken from patent US9115374B2, “SYN3 compositions and methods” (MERCK SHARP & DOHME CORP., priority 2001, dated 2015).

Experiment: Stability of lyophilized formulations of SYN3, concentration by HPLC after reconstitution
Assay type: physicochemical
Details: in the dehydrated powder at 40° C.
Protocol: Stability testing of the resultant lyophilized products of Examples 13, 14 and 15 yielded the following results:
Stability testing was accomplished by HPLC. Lyophilized formulations were reconstituted (redissolved) with 19.5 ml WFI. Samples were placed in the indicated temperature conditions, incubated for specified times and concentrations were determined by HPLC and compared to initial concentrations.

C[C@H](CCC(=O)NCCCN(CCCNC(=O)[C@H](O)[C@@H](O)[C@H](O[C@@H]1O[C@H](CO)[C@H](O)[C@H](O)[C@H]1O)[C@H](O)CO)C(=O)CC[C@@H](C)[C@H]1CC[C@H]2[C@@H]3[C@H](O)C[C@@H]4C[C@H](O)CC[C@]4(C)[C@H]3C[C@H](O)[C@]12C)[C@H]1CC[C@H]2[C@@H]3[C@H](O)C[C@@H]4C[C@H](O)CC[C@]4(C)[C@H]3C[C@H](O)[C@]12C [SYN3, (N —(3-cholamidopropyl)—N —(3-lactobionamidopropyl))-cholamide]
time SYN3 remains stable: at least 3 months
